Patent US20130267551A1, “SUBSTITUTED HYDROGENATED THIENO-PYRROLO[3,2-C]PYRIDINE, LIGANDS, A PHARMACEUTICAL COMPOSITION AND A METHOD FOR USING THE ABOVE” (ALLA CHEM, LLC, priority 2010, published 2013)
Where a name gives a salt, the structure may show the parent alone.

Tests used:
Histaminergic H3 = Histaminergic H3 (Homo sapiens, UniProt Q9Y5N1); experiment: competitive radioligand binding, Histaminergic H3; settings: compound concentration of 1 μM; read-out: radio-labelled ligand displacement, Histaminergic H3
Chain of Histaminergic H3 (Q9Y5N1 whole entry): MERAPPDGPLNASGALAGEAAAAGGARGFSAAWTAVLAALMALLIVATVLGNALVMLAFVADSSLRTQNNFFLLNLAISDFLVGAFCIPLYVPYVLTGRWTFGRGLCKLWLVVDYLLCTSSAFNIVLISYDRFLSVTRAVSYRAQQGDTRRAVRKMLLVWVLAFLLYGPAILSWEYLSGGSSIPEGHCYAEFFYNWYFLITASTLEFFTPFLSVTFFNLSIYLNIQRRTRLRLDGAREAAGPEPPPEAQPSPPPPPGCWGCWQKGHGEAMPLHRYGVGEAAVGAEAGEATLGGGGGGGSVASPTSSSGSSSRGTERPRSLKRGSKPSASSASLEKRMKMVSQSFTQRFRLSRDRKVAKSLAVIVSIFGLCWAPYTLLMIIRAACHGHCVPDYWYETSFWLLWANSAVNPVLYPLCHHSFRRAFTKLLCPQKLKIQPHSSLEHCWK
Summary of the method: (§1)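 Single-point screen: compound 1 μM, competitive radioligand binding; readout = quantitative displacement of labelled ligand.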

Serotoninergic 5-HT2A = Serotoninergic 5-HT2A (Homo sapiens, UniProt P28223); experiment: competitive radioligand binding, Serotoninergic 5-HT2A; settings: read-out: radio-labelled ligand displacement, Serotoninergic 5-HT2A
Chain of Serotoninergic 5-HT2A (P28223 whole entry): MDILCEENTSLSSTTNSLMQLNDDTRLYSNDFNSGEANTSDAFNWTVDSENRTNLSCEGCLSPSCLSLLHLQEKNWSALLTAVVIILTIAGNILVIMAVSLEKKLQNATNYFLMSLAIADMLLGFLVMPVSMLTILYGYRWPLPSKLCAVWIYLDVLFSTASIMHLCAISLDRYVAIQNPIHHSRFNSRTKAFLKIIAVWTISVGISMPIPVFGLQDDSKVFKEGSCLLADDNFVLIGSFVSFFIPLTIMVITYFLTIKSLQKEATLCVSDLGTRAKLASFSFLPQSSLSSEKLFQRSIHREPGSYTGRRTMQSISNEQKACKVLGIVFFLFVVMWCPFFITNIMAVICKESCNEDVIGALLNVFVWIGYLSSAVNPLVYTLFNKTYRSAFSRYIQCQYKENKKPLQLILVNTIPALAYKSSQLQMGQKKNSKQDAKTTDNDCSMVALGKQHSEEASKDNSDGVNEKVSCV
Summary of the method: as §1

Serotoninergic 5-HT6 = Serotoninergic 5-HT6 (Homo sapiens, UniProt P50406); experiment: competitive radioligand binding, Serotoninergic 5-HT6; settings: compound concentration of 1 μM; read-out: radio-labelled ligand displacement, Serotoninergic 5-HT6
Chain of Serotoninergic 5-HT6 (P50406 whole entry): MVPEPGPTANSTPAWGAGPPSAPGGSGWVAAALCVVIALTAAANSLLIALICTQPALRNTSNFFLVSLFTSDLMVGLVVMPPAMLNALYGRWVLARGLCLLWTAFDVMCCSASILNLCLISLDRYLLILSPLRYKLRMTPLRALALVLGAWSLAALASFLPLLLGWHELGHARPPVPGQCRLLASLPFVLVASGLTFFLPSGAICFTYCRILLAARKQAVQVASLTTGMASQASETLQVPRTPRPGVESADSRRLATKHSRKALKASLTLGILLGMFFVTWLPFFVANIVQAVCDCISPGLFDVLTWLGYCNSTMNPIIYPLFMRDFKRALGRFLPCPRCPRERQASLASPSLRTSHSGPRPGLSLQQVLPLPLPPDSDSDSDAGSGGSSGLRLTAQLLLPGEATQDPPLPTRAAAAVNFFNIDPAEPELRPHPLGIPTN
Summary of the method: as §1

Adrenergic α1D = biological target: T1, Adrenergic α1D (Homo sapiens, UniProt P25100); experiment: competitive radioligand binding, Adrenergic α1D; settings: compound concentration of 1 μM; read-out: radio-labelled ligand displacement, Adrenergic α1D
T1 sequence (P25100 1-572): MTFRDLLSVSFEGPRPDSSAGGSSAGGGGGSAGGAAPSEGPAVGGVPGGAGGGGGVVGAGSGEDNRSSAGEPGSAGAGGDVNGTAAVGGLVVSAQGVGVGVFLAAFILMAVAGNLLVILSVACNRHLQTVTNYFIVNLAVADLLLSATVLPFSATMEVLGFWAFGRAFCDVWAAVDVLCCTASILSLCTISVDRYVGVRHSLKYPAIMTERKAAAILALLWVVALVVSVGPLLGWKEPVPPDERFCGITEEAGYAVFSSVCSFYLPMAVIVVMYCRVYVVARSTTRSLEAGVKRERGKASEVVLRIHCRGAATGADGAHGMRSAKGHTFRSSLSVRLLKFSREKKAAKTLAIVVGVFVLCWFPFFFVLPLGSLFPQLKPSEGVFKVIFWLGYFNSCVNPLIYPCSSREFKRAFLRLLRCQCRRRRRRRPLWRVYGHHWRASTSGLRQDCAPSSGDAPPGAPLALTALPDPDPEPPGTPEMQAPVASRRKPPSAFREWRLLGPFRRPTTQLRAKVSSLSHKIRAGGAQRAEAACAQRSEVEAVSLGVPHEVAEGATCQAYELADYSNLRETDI
Summary of the method: as §1

Dopaminergic D2S = Dopaminergic D2S (Homo sapiens, UniProt P14416); experiment: competitive radioligand binding, Dopaminergic D2S; settings: compound concentration of 1 μM; read-out: radio-labelled ligand displacement, Dopaminergic D2S
Chain of Dopaminergic D2S (P14416 1-414 isoform P14416-2): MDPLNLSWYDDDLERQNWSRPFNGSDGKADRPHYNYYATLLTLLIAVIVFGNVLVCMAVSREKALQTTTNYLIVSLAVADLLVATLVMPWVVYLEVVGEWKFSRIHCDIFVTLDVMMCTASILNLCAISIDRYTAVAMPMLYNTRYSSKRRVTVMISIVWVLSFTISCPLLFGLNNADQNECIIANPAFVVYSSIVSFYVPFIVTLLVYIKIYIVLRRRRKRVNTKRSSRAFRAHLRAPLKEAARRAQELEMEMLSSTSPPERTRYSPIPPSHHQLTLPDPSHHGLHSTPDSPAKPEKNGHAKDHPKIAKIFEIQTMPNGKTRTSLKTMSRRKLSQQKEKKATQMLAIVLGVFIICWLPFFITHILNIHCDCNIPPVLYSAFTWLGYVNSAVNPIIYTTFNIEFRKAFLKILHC
Summary of the method: as §1

Serotoninergic 5-HT1A = biological target: T2, Serotoninergic 5-HT1A (Homo sapiens, UniProt P08908); experiment: competitive radioligand binding, Serotoninergic 5-HT1A; settings: compound concentration of 1 μM; read-out: radio-labelled ligand displacement, Serotoninergic 5-HT1A
T2 sequence (P08908 1-422): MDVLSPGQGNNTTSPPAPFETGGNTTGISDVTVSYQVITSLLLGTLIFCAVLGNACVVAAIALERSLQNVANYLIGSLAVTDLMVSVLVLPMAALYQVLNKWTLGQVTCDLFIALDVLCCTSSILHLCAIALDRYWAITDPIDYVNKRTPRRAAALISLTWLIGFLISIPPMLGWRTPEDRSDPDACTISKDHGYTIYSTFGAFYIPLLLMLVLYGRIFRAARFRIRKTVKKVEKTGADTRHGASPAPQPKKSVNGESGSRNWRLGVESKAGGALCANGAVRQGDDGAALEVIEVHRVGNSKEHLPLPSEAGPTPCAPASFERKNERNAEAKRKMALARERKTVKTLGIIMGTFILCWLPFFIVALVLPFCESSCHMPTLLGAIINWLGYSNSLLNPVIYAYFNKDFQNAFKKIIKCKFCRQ
Summary of the method: as §1

Serotoninergic 5-HT7 = Serotoninergic 5-HT7 (Homo sapiens, UniProt P34969); experiment: competitive radioligand binding, Serotoninergic 5-HT7; settings: compound concentration of 1 μM; read-out: radio-labelled ligand displacement, Serotoninergic 5-HT7
Chain of Serotoninergic 5-HT7 (P34969 whole entry): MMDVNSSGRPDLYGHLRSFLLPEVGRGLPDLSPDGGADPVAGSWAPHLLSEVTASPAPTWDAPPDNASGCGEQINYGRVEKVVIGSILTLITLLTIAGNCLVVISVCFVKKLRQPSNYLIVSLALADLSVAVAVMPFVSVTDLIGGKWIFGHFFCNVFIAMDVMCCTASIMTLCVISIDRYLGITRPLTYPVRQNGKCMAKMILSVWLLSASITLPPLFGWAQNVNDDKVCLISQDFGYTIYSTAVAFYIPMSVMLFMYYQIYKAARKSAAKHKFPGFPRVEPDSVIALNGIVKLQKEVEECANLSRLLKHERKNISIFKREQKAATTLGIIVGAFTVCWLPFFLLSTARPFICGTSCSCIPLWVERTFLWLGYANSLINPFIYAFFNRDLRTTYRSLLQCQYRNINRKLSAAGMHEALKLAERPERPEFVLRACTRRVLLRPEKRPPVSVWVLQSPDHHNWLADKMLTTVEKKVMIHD
Summary of the method: as §1

Serotoninergic 5-HT1B = experiment: competitive radioligand binding, Serotoninergic 5-HT1B; settings: compound concentration of 1 μM
Summary of the method: as §1

Histaminergic H1 = Histaminergic H1 (Homo sapiens, UniProt P35367); experiment: competitive radioligand binding, Histaminergic H1; settings: compound concentration of 1 μM; read-out: radio-labelled ligand displacement, Histaminergic H1
Chain of Histaminergic H1 (P35367 whole entry): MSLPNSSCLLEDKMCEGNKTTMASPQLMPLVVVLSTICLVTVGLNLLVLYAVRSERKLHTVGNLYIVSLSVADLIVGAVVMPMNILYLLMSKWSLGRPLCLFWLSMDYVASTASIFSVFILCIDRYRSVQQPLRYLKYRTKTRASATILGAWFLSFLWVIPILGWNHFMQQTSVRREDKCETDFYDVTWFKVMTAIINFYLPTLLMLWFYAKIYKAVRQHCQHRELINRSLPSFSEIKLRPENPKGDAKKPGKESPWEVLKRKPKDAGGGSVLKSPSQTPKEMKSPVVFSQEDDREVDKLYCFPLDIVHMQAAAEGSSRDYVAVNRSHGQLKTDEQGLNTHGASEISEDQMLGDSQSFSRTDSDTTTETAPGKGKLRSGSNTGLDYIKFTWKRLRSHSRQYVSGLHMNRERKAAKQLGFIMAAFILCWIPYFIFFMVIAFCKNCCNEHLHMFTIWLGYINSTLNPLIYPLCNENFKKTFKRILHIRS
Summary of the method: as §1

Histaminergic H2 = Histaminergic H2 (Homo sapiens, UniProt P25021); experiment: competitive radioligand binding, Histaminergic H2; settings: compound concentration of 1 μM; read-out: radio-labelled ligand displacement, Histaminergic H2
Chain of Histaminergic H2 (P25021 whole entry): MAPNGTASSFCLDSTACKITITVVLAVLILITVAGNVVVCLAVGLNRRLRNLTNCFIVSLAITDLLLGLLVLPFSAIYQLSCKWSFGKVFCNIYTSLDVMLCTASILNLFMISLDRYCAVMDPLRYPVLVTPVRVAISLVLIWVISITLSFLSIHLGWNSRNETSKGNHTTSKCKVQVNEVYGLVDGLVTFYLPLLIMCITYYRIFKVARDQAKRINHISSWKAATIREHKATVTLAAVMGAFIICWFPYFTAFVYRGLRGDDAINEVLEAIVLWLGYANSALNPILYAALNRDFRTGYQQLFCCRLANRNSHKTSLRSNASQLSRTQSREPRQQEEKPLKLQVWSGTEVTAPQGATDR
Summary of the method: as §1

Dopaminergic D1 = Dopaminergic D1 (Homo sapiens, UniProt P21728); experiment: competitive radioligand binding, Dopaminergic D1; settings: compound concentration of 1 μM; read-out: radio-labelled ligand displacement, Dopaminergic D1
Chain of Dopaminergic D1 (P21728 whole entry): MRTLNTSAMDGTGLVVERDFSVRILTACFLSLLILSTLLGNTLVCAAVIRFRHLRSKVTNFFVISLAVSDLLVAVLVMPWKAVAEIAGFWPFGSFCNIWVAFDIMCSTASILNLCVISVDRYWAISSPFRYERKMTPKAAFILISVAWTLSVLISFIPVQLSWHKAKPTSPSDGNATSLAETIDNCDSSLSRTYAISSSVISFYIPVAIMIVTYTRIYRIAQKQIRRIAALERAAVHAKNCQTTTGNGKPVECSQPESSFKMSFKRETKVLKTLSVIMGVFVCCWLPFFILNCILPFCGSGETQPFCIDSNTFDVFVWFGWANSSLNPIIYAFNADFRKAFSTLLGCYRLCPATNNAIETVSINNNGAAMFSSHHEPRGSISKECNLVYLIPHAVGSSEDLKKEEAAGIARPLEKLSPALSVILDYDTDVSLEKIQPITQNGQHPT
Summary of the method: as §1

Dopaminergic D3 = Dopaminergic D3 (Homo sapiens, UniProt P35462); experiment: competitive radioligand binding, Dopaminergic D3; settings: compound concentration of 1 μM; read-out: radio-labelled ligand displacement, Dopaminergic D3
Chain of Dopaminergic D3 (P35462 whole entry): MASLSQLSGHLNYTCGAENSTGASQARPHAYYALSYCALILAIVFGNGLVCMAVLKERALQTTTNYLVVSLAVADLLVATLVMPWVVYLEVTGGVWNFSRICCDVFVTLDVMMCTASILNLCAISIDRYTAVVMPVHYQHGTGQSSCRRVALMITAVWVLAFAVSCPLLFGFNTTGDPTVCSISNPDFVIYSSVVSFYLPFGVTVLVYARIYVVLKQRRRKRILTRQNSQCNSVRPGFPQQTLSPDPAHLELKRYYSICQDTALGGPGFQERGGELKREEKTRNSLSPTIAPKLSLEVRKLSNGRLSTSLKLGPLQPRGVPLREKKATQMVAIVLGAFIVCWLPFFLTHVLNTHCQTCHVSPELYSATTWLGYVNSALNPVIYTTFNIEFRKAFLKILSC
Summary of the method: as §1

Serotoninergic 5-HT2B = Serotoninergic 5-HT2B (Homo sapiens, UniProt P41595); experiment: competitive radioligand binding, Serotoninergic 5-HT2B; settings: compound concentration of 1 μM; read-out: radio-labelled ligand displacement, Serotoninergic 5-HT2B
Chain of Serotoninergic 5-HT2B (P41595 whole entry): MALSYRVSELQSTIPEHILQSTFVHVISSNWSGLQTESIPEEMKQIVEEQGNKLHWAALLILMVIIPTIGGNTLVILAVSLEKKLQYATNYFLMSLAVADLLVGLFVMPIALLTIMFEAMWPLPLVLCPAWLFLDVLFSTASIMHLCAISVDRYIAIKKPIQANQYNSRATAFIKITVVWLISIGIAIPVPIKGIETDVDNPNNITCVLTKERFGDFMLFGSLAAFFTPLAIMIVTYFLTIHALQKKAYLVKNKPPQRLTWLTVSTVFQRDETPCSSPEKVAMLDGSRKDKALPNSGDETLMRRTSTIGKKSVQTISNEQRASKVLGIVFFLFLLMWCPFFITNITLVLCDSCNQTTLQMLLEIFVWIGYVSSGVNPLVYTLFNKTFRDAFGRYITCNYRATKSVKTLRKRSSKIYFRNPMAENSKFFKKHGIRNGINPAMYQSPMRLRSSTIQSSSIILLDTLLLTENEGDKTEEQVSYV
Summary of the method: as §1

Adrenergic α2A = biological target: T3, Adrenergic α2A (Homo sapiens, UniProt P08913); experiment: competitive radioligand binding, Adrenergic α2A; settings: compound concentration of 1 μM; read-out: radio-labelled ligand displacement, Adrenergic α2A
T3 sequence (P08913 1-465): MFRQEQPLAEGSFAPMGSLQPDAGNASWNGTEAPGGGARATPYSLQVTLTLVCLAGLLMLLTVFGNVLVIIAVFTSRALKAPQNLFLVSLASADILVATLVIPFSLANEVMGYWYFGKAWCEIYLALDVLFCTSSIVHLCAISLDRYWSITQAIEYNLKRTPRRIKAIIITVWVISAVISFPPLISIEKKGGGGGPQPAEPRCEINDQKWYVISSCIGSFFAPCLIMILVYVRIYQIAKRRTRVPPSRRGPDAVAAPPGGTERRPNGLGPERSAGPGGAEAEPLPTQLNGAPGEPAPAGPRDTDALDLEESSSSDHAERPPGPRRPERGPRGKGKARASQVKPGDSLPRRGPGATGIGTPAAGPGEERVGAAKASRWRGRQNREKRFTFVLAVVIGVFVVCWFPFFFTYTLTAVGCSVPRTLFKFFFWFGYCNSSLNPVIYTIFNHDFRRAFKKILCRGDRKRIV
Summary of the method: as §1

Work on `Cc1ccc(CCCn2c3c(c4scc(Cl)c42)CN(C)CC3)cn1` [2.12(5)•HCl, 7-methyl-4-[3-(6-methylpyridin-3-yl)propyl]-3-chloro-5,6,7,8-tetrahydro-4H-thieno[2′,3′:4,5]pyrrolo[3,2-c]pyridine] yielded an inhibition at 1 µM (Histaminergic H3) of 12%, an inhibition at 1 µM (Serotoninergic 5-HT2A) of 99% and an inhibition at 1 µM (Serotoninergic 5-HT6) of 100%. For the same compound, the inhibition at 1 µM (Adrenergic α1D) was 93%, the inhibition at 1 µM (Dopaminergic D2S) was 89% and the inhibition at 1 µM (Serotoninergic 5-HT1A) was 57%. For the same compound, the inhibition at 1 µM (Serotoninergic 5-HT7) was 99%, the radio-labelled ligand displacement, Serotoninergic 5-HT1B (Serotoninergic 5-HT1B) was 62% and the inhibition at 1 µM (Histaminergic H1) was 99%. It also gave an inhibition at 1 µM (Histaminergic H2) of 96%, an inhibition at 1 µM (Dopaminergic D1) of 75% and an inhibition at 1 µM (Dopaminergic D3) of 71%. For the same compound, the inhibition at 1 µM (Serotoninergic 5-HT2B) was 95% and the inhibition at 1 µM (Adrenergic α2A) was 101%.
